Source: patent publication US12202790B2, “Sulfonamide derivatives having selective Nox inhibiting activity” (GLUCOX BIOTECH AB, priority 2018, dated 2025)

Test system: Sprague-Dawley rats
Assay: Streptozotocin rat model of diabetic retinopathy
Format: in vivo
Settings: 10 mg/ml eye drops for two weeks, STZ diabetic rats
Description: Animals were maintained on a 12 h light-dark cycle, at 22-25° C. Food and water were available ad libitum. Diabetes was induced by a single dose of streptozotocin (STZ, 70 mg/kg, ip, Sigma-Aldrich, Germany) dissolved in sodium citrate (0.1M) buffer (diabetic group) after a fasting period of 8-12 hours. Animals with blood glucose levels>350 mg/d1, after 72 hours post-STZ injection were considered diabetic. Both male and female Sprague-Dawley rats were used in the study. Three experimental groups were employed, namely Control (n=6), Diabetic (n=7), and Diabetic-treated group (n=6). Example 17 (10 mg/ml) dissolved in DMSO was administered as eye drops, for two weeks, starting two (2) days after STZ administration. Animals were euthanized 24 hours after the last treatment, and their eyes were removed. […]
Antibodies raised against the macroglia marker glial fibrillary acidic protein (GFAP) were employed. Quantification using the public domain ImageJ 1.43m software was employed for the mean gray value [integrated density (fluorescence density)/delineated area] calculated and expressed as a percentage of the mean gray value of the control. Statistical analysis of the data was performed using GraphPad Prism v5.0 (San Diego, Calif., USA) and differences between groups were evaluated by one-way analysis of variance (ANOVA) with Neuman-Keuls. […]

Cc1ccccc1CCNS(=O)(=O)c1c(Cl)cc(Br)cc1Cl [Example 17, 4-bromo-2,6-dichloro-N-[2-(2-methylphenyl)ethyl]benzene-1-sulfonamide]
GFAP immunoreactivity in retina: attenuated the diabetes induced increase in GFAP immunoreactivity
